The format of data set [1] is physicochemical. The settings on record: for chemical stability of the component in buffers / degradation of the component at pH 2 and 10: 1% w/w purified loline extract, 0.2M buffers; for chemical stability of the component in buffers: except pH 2 and 10; for degradation of the component at pH 2 and 10: starting at 24 h. Here is the method: 1% w/w solutions of purified loline extract at various pH and 0.2M buffers were used in this investigation. The solutions were maintained at 54° C. (±1° C.) and 70° C. (±1° C.) and pH remained at the target pH (±0.2 pH units). Samples were taken periodically over a 2-3 week period and analysed by GC-FID to determine NFL strength.

The format of data set [2] is physicochemical.

The source of these data is patent US12606569B2, “Alkaloid-containing compositions and uses thereof” (priority 2017, dated 2026).

Read-outs that look alike come from different tables or passages of the source.

For the compound `CC(=O)N(C)C1C2CN3CCC(O2)C13` (stereo not shown) [NAL, N-acetylloline], in data set [1], the “chemical stability of the component in buffers” value is “chemically stable”; the “degradation of the component at pH 2 and 10” value is listed as “small degradation”.
Turning to `CC(=O)NC1C2CN3CCC(O2)C13` (stereo not shown) [NANL, N-acetylnorloline], in data set [1], the “chemical stability of the component in buffers” value is “chemically stable”; the “degradation of the component at pH 2 and 10” value was “small degradation”.
`CN(C=O)C1C2CN3CCC(O2)[C@H]13` (stereo partly shown) [NFL, N-formylloline]: in data set [1] (70° C.), the “stability on increasing or decreasing pH from pH 4” value is “significant decrease in stability”. In addition, in data set [1] (70° C., pH 2.6), the “time after which the stability of NFL plateaus” value was “approximately 100 hours”. In addition, the “stability (degradation of NFL to loline)” value is recorded as “greatest stability” in data set [1] (70° C., pH 4, acetic acid derived buffer, over 170 hours) and “lower stability” in data set [1] (70° C., pH 4, citric acid buffer). In data set [2] (50° C. compared with 70° C.), the overall degradation rates result is listed as “reduced”. Further, the “conversion of NFL to loline, citric acid based system versus acetic acid derived buffer” value in data set [2] (both 50° C. and 70° C.) is recorded as “higher degradation”.
